Results taken from patent US9862684B2, “Modulation of K2P channels” (The Regents of the University of California, priority 2013, dated 2018).
Where “and” joins values, the source holds several entries; their conditions need not be identical. Equal values may be shown once.

Target: T1, K2P4.1 (TRAAK) (Mus musculus, UniProt O88454)
T1 construct: expressed in transfected cells; host or cells: Xenopus oocytes
T1 sequence (O88454 1-398): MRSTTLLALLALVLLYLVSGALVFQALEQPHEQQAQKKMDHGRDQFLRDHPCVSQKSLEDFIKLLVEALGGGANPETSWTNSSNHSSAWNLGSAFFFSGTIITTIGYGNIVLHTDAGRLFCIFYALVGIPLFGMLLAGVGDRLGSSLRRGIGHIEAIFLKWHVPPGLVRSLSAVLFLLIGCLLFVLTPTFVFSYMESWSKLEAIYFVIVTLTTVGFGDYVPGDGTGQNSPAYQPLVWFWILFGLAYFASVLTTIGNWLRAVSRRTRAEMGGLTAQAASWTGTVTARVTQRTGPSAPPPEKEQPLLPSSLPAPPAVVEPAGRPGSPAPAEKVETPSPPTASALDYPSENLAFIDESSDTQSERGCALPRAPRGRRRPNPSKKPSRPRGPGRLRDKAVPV
Experiment: Two-electrode voltage clamp, Xenopus oocytes expressing K2P4.1 (TRAAK)
Format: cell-based, Murine
Description: FIG. 7 ML67-33 is a selective activator of heat- and mechanosensitive K2P channels. a-f, Exemplar I-V curves showing the effect of ML67-33 on a, K2P10.1 (TREK-2), b, K2P4.1 (TRAAK), c, K2P3.1 (TASK-1), d, K2P9.1 (TASK-3), e, K2P5.1 (TASK-2), and f, K2P18.1 (TRESK) measured in Xenopus oocytes in 2 mM [K^+]o pH 7.4. Currents were elicited by a voltage ramp from −150 to 50 mV, from a holding potential of −80 mV. g, Quantification of the effect of ML67-33 on the indicated channels. Data (mean±s.e., n≧6, N≧2) was normalized to basal channel activity and fitted to the Hill equation. […] Error bars indicate s.e., n≧6, N≧2.
Murine K2P channels were cloned into pGEMHE/pMO {Bagriantsev, 2011}, IRES-GFP (Invitrogen), or pYES2-MET25 (high copy 2μ, URA3) {Minor, 1999} for expression in oocytes, HEK-293T cells, and yeast, respectively, using standard molecular biology procedures, and verified by DNA sequencing.
Two-electrode voltage clamp recordings were performed from defolliculated stage V-VI Xenopus oocytes 24-48 hours after injection with 0.015-6.0 ng cRNA, using microelectrodes (0.3-3.0 MΩ) filled with 3M KCl. Data was acquired using the GeneClamp 500B (MDS Analytical Technologies) amplifier controlled by the pClamp software (Molecular Devices), and digitized at 1 kHz using Digidata 1332A (MDS Analytical Technologies). […]

SMILES: CC1(C)c2cc(Cl)ccc2N(CCc2nnn[nH]2)c2ccc(Cl)cc21 [ML67-33, 2,7-dichloro-9,9-dimethyl-10-[2-(1H-tetrazol-5-yl)ethyl]acridine]
- EC50 (Xenopus oocytes, 2 mM [K+]o pH 7.4): 27.3 ± 1.2 µM
- Emax (fold) (at 100 μM (FIG. 7 legend), ** in Table 1): 14.7±1.1 fold and 14.7±1.12 fold
